Laboratory results as given in patent US6339069B1, “Peptide-lipid conjugates, liposomes and lipsomal drug delivery” (Elan PharmaceuticalsTechnologies, Inc., priority 1996, dated 2002).

Legend:
[1] = pH 7.4; cited from earlier work
[2] = biological target: T1, Human leukocyte elastase (HLE) (Homo sapiens, UniProt P08246); test: Cleavage of MeO-suc-ala-ala-pro-val-DOPE by HLE (TLC, 31P-NMR); assay type: biochemical; settings: 2 hours
T1 construct: purchased Calbiochem (San Diego, Calif.)
T1 sequence (P08246 30-247 limits assumed): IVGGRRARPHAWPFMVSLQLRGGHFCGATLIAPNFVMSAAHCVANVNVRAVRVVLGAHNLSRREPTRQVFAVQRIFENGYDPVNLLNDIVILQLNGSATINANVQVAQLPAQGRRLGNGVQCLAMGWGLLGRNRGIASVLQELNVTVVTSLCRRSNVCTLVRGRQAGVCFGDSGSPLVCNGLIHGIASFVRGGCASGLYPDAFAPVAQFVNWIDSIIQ
Method: To determine if the peptide-lipid MeO-suc-ala-ala-pro-val-DOPE (SEQ ID NO:42) is also a suitable substrate for elastase mediated cleavage 50 nmol of MeO-suc-ala-ala-pro-val-DOPE liposomes (SUVs) were incubated with 0, 2.5, 5, 10, or 20 ug HLE (from Calbiochem; 20 units/mg protein; 1 unit=amount of enzyme that will hydrolyze 1.0 umol of MeO-suc-ala-ala-pro-val-pNA per min at 25 degrees C., pH 8.0) overnight at 37 degrees C. in 50 ul volume of 10 mM TES/ 154 mM NaCl/ 0.1 mM EDTA, pH 7.4, containing 1.5 mM Ca and 1.5 mM Mg.
Lipid was extracted using the Bligh-Dyer technique (chloroform/methanol/water: 2/1.7/1), dried under nitrogen, placed under high vacuum for ˜3 hours. Samples were resuspended in 5 ul chloroform and spotted onto TLC plates. 20 ug of pure DOPE was also spotted for comparison purposes. TLC solvent system was chloroform/methanol/ammonium hydroxide (65/25/5). Plates were air dried, sprayed with molybdenate blue, then charred at 180 degrees C.
MeO-suc-ala-ala-pro-val-DOPE liposomes were incubated with 0 or 5 ug HLE for 1, 2, 4 hours, or overnight and processed as above. The peptide was cleaved by HLE in as little as 1 hour at 37 degrees C.
The conversion of MeO-suc-AAPV-DOPE to DOPE (SEQ ID NO:42) was also quantitated by ^31P-NMR. […] A small shoulder that may indicate an incomplete peptide cleavage product was also observed near the original peptide-lipid peak. Treatment with 5 micrograms of elastase/100 nmol lipid yielded 20% DOPE. Longer incubation may have lead to further digestion, though multiple lamellae and/or the surface charge of the liposome may limit the ultimate amount digested. The maximum exposed peptide-lipid for intact liposomes would occur with unilamellar vesicles. Assuming only the outer leaflet peptide-lipid in unilamellar vesicles is available for digestion, the minimal percentage conversion of exposed MeO-suc-AAPV-DOPE (SEQ ID NO:42) to DOPE in the outer leaflet lipid of this preparation was 40% (FIG. 6, dotted line). If the average number of lamellae were greater than one, the percentage conversion was even higher. […]

[3] = biological target: T2, Human leukocyte elastase (Homo sapiens, UniProt P08246); test: Elastase-mediated cleavage of N-Ac-AA-DOPE to DOPE (TLC, HPLC); assay type: biochemical; settings: overnight, 37° C.
T2 construct: purchased Calbiochem (San Diego, Calif.)
T2 sequence (P08246 30-247 limits assumed): T1 sequence (P08246 30-247 limits assumed)
Method: Cleavage of N-Ac-ala-ala-DOPE to DOPE by elastase was monitored by thin layer chromatography (TLC). The chemical structure of N-Ac-ala-ala-DOPE and its postulated scheme of conversion to DOPE by enzymatic cleavage is shown in FIG. 1. 100-200 nmol of N-Ac-AA-DOPE SUVs were incubated with 1 mg enzyme in 0.1 ml overnight at 37° C. Human leukocyte elastase was purchased from Calbiochem (San Diego, Calif.). Lipid was extracted by organic phase separation (Bligh and Dyer, 1959) twice. Collected lipid was dried under N^2 stream and exposed to vacuum for 4 hours-overnight. Samples were resuspended in chloroform and spotted onto TLC plates. […]
Elastase and proteinase K mediated cleavage of N-Ac-AA-DOPE was quantitated using liposomes composed of N-Ac-AA-DOPE and DOTAP, a positively charged lipid. […] After treatment with elastase or proteinase K the reduction in the amount of N-Ac-AA-DOPE was monitored by HPLC (FIG. 4). […]
Collected lipid was dried under a N2 stream and exposed to vacuum for 4 hours-overnight. […] The N-Ac-AA-DOPE peak was detected using a gradient of 59-55% isopropanol:4-8% water. Flow rate was 1.5 ml/min, column temperature was set at 45° C., and peaks were detected by a UV detector set at 205 nm. Lipid peaks were quantitated in comparison to standard curves generated by injecting 5-200 nmol of DOTAP or N-Ac-AA-DOPE and monitoring 205 nm signal. […]

[4] = biological target: proteinase K (Parengyodontium album, UniProt P06873); test: Proteinase K-mediated cleavage of N-Ac-AA-DOPE (TLC, 31P-NMR, HPLC); assay type: biochemical
Method: Several proteases were tested to determine whether an enzyme with similar substrate specificity could be used as a model for elastase mediated cleavage of N-Ac-AA-DOPE. Proteinase K is a serine protease that, similarly to elastase, can cleave at peptide bonds C-terminal to aliphatic residues.
Subsequently, proteinase K, which has a similar substrate specificity to elastase, was used to model the elastase effect because of the lower cost of the enzyme. Referring to FIG. 3, samples A and C contained pure N-acetyl-ala-ala-DOPE and pure DOPE, respectively; sample B consisted of multilamellar liposomes, prepared as described hereinbelow, composed of pure N-acetyl-ala-ala-DOPE (2 μmole total phospholipid), which were incubated in 200 μl of 154 mM NaCl, 10 mM TES, 0.1 mM EDTA at pH 7.4 and 37 ° C. for two hours in the presence of 1 mg of proteinase K. After the first incubation, another equal amount of proteinase K was added and the sample was incubated for another 2 hours. All three samples were dissolved into a final concentration of 5% deoxycholate, 50 mM EDTA and 10 mM HEPES at pH 8 for proton decoupled ^31P NMR.
The conversion of N-Ac-AA-DOPE to DOPE was also monitored by ^31P-NMR analysis. N-Ac-AA-DOPE LUVs were prepared and treated with or without proteinase K (1.5 mg protein/100 nmol lipid) overnight at 37° C. Samples were mixed with buffer (10% deoxycholate, 100 mM EDTA, 20 mM Hepes) and deuterium oxide (Cambridge Isotope Laboratories, Woburn, Mass.) (1:4:2) and transferred to 5 mm NMR tubes. Samples were monitored at room temperature in a Bruker AC300 spectrometer operating at 121.5 MHz, with […] 90° radio frequency pulse for proton decoupling and set to 2 sec interpulse delay to avoid signal saturation. Sweep width was set at 50 kHz. 1 Hz line broadening was applied to all spectra.
Elastase and proteinase K mediated cleavage of N-Ac-AA-DOPE was quantitated using liposomes composed of N-Ac-AA-DOPE and DOTAP, a positively charged lipid. DOTAP was included to provide a counterbalancing positive charge, and was used as a standard by which different samples could be normalized and compared. After treatment with elastase or proteinase K the reduction in the amount of N-Ac-AA-DOPE was monitored by HPLC (FIG. 4). Liposomes composed of DOTAP/N-Ac-AA-DOPE (1:1) were incubated with enzyme under given conditions. Lipid was extracted by the Bligh-Dyer procedure twice.
Collected lipid was dried under a N2 stream and exposed to vacuum for 4 hours-overnight. Samples were resuspended in 100% ethanol and injected in 30 ul aliquots into Spherisorb silica columns (150×4.6 mm, […], Keystone Scientific). HPLC was performed using a hexane:isopropanol:water:TFA mobile phase. Hexane and TFA were held constant at 37% and 0.2%, respectively. The N-Ac-AA-DOPE peak was detected using a gradient of 59-55% isopropanol:4-8% water. Flow rate was 1.5 ml/min, column temperature was set at 45° C., and peaks were detected by a UV detector set at 205 nm. Lipid peaks were quantitated in comparison to standard curves generated by injecting 5-200 nmol of DOTAP or N-Ac-AA-DOPE and monitoring 205 nm signal. Percent cleavage was calculated by normalizing peaks to DOTAP, then determining the decrease in N-Ac-AA-DOPE peak size relative to starting amounts.
To verify that the cleavage of N-Ac-AA-DOPE was due to proteinase K enzymatic activity, liposomes were treated with heat inactivated proteinase K. Proteinase K was inactivated by heating at 95° C. for 1 hour, after which the enzyme was incapable of cleaving the chromogenic substrate N-Ac-AAA-pNA. […] In these experiments liposomes, prepared as described hereinbelow, were composed of 100% N-Acetyl-ala-ala-DOPE and were then extruded to approximately 0.2 microns diameter. Fifty micrograms of liposomal lipid was incubated alone or with one unit of HLE overnight at 37° C. […]

[5] = tested on: S. griseus (“pronase”); test: Cleavage of N-Ac-ala-ala-DOPE by pronase (HPLC); assay type: biochemical; settings: DOTAP/N-acetyl-ala-ala-PE 1:1 SUVs, 100 nmole, 0.5 or 1.0 mg enzyme, overnight, 37 degrees C.
Method: (§1) To compare the effect of different proteolytic enzymes on the cleavage of N-acetyl-ala-ala-DOPE, small unilamellar liposomes composed of DOTAP and N-acetyl-ala-ala-PE (1:1 molar ratio, 100 nmole), prepared as described hereinabove, were incubated overnight at 37 degrees C. with either 0.5 mg (experiment 1) or 1.0 mg (experiment 2) of: S. caespitosus protease, S. priseus (“pronase”), peptidase, chymotrypsin, trypsin, protease type I, proteinase K, or with no enzyme added.
(§2) Subsequently, lipid was extracted from these preparations by organic phase separation, and dried under vacuum. The dried lipid was suspended in ethanol, and the resulting lipidic solution was then injected into a normal phase silica column. Analysis was by HPLC, as described above. Lipid peaks were quantitated, and the amount of lipid cleavage was calculated as a percentage of the starting lipid.

[6] = tested on: S. caespitosus protease, peptidase, chymotrypsin, trypsin, protease type I; test: Cleavage of N-Ac-ala-ala-DOPE by other proteases (HPLC); assay type: biochemical; settings: DOTAP/N-acetyl-ala-ala-PE 1:1 SUVs, 100 nmole, 0.5 or 1.0 mg enzyme, overnight, 37 degrees C.
Method: as §1, §2

proteinase K, sequence (P06873 106-384, species assumed): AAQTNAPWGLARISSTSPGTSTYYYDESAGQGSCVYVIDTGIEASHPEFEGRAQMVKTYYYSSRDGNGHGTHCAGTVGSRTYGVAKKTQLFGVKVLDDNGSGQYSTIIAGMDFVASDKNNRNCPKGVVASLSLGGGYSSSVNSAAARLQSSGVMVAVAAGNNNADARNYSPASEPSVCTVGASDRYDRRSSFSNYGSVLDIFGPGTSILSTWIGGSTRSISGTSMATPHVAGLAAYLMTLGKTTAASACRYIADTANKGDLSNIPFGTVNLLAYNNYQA

CCCCCCCC/C=C\CCCCCCCC(=O)OCC(CN(C)C)OC(=O)CCCCCCC/C=C\CCCCCCCC (centres unmarked) [DODAP, 1-N,N-dimethylamino dioleoyl propane]
DODAP population positively charged [1]: 20%

CCCCCCCC/C=C\CCCCCCCC(=O)OC[C@H](COP(=O)(O)OCCNC(=O)[C@@H](NC(=O)[C@@H]1CCCN1C(=O)[C@H](C)NC(=O)[C@H](C)NC(=O)CCC(=O)OC)C(C)C)OC(=O)CCCCCCC/C=C\CCCCCCCC [MeO-suc-AAPV-DOPE, 1,2-Dioleoyl-sn-glycero-3-phosphoethanolamido-val-pro-ala-ala-sucMeO]
DOPE yielded from MeO-suc-AAPV-DOPE (31P-NMR) ([2]; DODAP/MeO-suc-AAPV-DOPE 1:1 vesicles, 5 micrograms of elastase/100 nmol lipid, 37° C.): 20%
Available peptide-lipid cleaved ([2]; assuming approximately 2.5 lamellae per vesicle, 5 micrograms elastase/100 nmol lipid): 100%
Minimal percentage conversion of exposed MeO-suc-AAPV-DOPE to DOPE in the outer leaflet ([2]; assuming unilamellar vesicles, 5 micrograms elastase/100 nmol lipid): ≥ 40%

CCCCCCCC/C=C\CCCCCCCC(=O)OCC(COP(=O)(O)OCCNC(=O)[C@H](C)NC(=O)[C@H](C)NC(C)=O)OC(=O)CCCCCCC/C=C\CCCCCCCC (some centres unmarked) [N-Ac-AA-DOPE, N-acetyl-alanyl-alanyl-dioleoyl phosphatidylethanolamine]
Cleavage of N-Ac-AA-DOPE by elastase (HPLC) ([3]; DOTAP/N-Ac-AA-DOPE (1:1) liposomes, 1 mg protease/100 nmol lipid): cleaved N-Ac-AA-DOPE to a similar extent
Cleavage of N-Ac-AA-DOPE to DOPE by elastase (TLC) ([3]; N-Ac-AA-DOPE SUVs, 1 mg enzyme in 0.1 ml): generated a product corresponding to DOPE
Cleavage of N-Ac-AA-DOPE by proteinase K (HPLC) ([4]; DOTAP/N-Ac-AA-DOPE (1:1) liposomes, 1 mg protease/100 nmol lipid, overnight, 37° C.): cleaved N-Ac-AA-DOPE to a similar extent
Cleavage of N-Ac-AA-DOPE by heat inactivated proteinase K (HPLC) ([4]; DOTAP/N-Ac-AA-DOPE liposomes, proteinase K inactivated 95° C., 1 hour): did not result in any cleavage
Cleavage of N-Ac-ala-ala-DOPE from liposomes by proteinase K (HPLC) ([4]; DOTAP/N-acetyl-ala-ala-PE 1:1 SUVs, 100 nmole, 0.5 or 1.0 mg enzyme, overnight, 37 degrees C.): effected cleavage
Conversion of N-Ac-AA-DOPE to DOPE (31P-NMR) ([4]; LUVs, proteinase K 1.5 mg protease/100 nmol lipid, overnight, 37° C.): appearance of a peak 0.3 ppm upfield from N-Ac-AA-DOPE, corresponding with pure DOPE
Cleavage of N-Ac-AA-DOPE by proteinase K (TLC) ([4]; N-Ac-AA-DOPE liposomes, 1 mg enzyme/100 nmol lipid, overnight, 37° C.): the peptide-lipid was cleaved and DOPE was generated
N-acetyl-ala-ala-DOPE converted to pure DOPE (31P NMR integration) ([4]; multilamellar liposomes of pure conjugate, 1 mg proteinase K 2 hours + equal amount another 2 hours, pH 7.4, 37° C.): approximately 20%
Cleavage of N-Ac-ala-ala-DOPE from liposomes by pronase (HPLC) [5]: effected cleavage
Cleavage of N-Ac-ala-ala-DOPE from liposomes by other proteases (HPLC) [6]: did not cleave
